According to patent US7022484B2, “Methods for treating neuropathological states and neurogenic inflammatory states and methods for identifying compounds useful therein” (Board of Regents, The University of Texas System, priority 2000, dated 2006):
“Also recorded” adds a separate entry of the source.

Assays:
[1] = tested on: NMDA currents; conditions: patch clamp studies; cited from earlier work
[2] = tested on: rat arthritis model; experiment: Paw withdrawal latency (PWL) to radiant heat in rat kaolin/carrageenan knee joint inflammation model; format: in vivo
Method: All studies followed the guidelines of the Institute Animal Care and Use Committee, in accordance with the guidelines of the National Institutes of Health. All animals were hosted in a room with a constant ambient temperature of 22° C. and 12 hour light/dark cycle with free access to food and water. Eighty-five Sprague-Dawley rats (250–300 grams) total were used in experiments conducted for biochemical, behavioral, and immunocytochemistry studies. […] On Day 2 baseline behavioral testing was followed by infusion of agents for 1.5 hours (pretreatment) prior to induction of knee joint inflammation under brief anesthesia. Behavioral testing was repeated 4 hours after induction of joint inflammation. Anesthetized animals were either transcardially perfused with aldehydes for immunohistochemical studies or fresh, frozen tissues collected for biochemical studies.
A microdialysis fiber was implanted into the spinal dorsal horn of anesthetized rats (sodium pentobarbital, 50 mg/kg) one day prior to the induction of arthritis according to the procedure of Skilling et al. (J. Neurochem., 51:127–132 (1988)), as described in Sluka et al. (Neurosci. Lett., 145:141–144 (1992)). Briefly, a small midline incision was made in the skin over the T12 vertebral level. The vertebrae were cleared of muscle and two 1 millimeter (mm) holes were drilled in the lateral aspect of both sides of the T12 vertebrae to expose the L4 spinal segment. A microdialysis fiber ([…], 45,000 MW cut-off, Hospal, AN69, Hospal Industrie, Meyzieu, France), was passed transversely across the deep dorsal horn and stabilized with dental cement. The microdialysis fiber was then passed through the holes in the vertebrae and transversely through the dorsal horn of the spinal cord. A 2 mm section of the microdialysis fiber lies in the dorsal horn at the level of L3–4 segment. The tubing was coated with epoxy except for a permeable portion passing through the spinal grey matter. The microdialysis fiber was connected to PE20 tubing (Becton Dickinson and Company, San Mateo, Calif.) which was tunneled under the skin to the nape of the neck. Alternatively as a systemic control for drug administration, the microdialysis fiber was implanted only in the subcutaneous tissue over the back muscle and tunneled to the neck. Artificial cerebrospinal fluid (aCSF) was made as described by Sorkin et al. (J. Neurosci. Methods, 23, 131–138 (1988)) and was infused (5 microliters/minute) for 1.5 hours and then the tube was heat-sealed for use on the following day.
Dose response curves were generated for Genistein with animals receiving Genistein spinally at concentration of 0.2 mM (n=3), 0.5 mM (n=3), 1 mM (n=9), and 2 mM (n=3). Animals received Lavendustin A or B spinally at concentrations of 0.1 mM (n=3), 0.5 mM (n=3), and 1 mM (n=5) as a positive and negative control for Genistein. […] Daidzein was tested at a dose of 1 mM (n=3). […] Eight additional animals received the vehicle, 50% DMSO in aCSF, as a control.
(§1) An acute inflammatory response restricted to the knee joint can be induced by the injection of 3% kaolin and 3% carrageenan (in sterile saline; 0.1 ml; pH 7.4) into the joint cavity while the animal is briefly anesthetized with sodium methohexital (Brevital, 60 mg/kg, i.p.). Kaolin and carrageenan were obtained from Fisher Scientific, St. Louis, Mo. The knee joint is flexed manually until the rat awakes (approximately 5–10 minutes). In this arthritis model in the awake rat, localized joint swelling, as well as limping and guarding of the limb, are well developed at 4 hours (Sluka et al., Pain, 59, 95–100 (1994)) when behavioral testing begins.
Fifty-five rats were used for behavioral studies. Four hours after induction of the arthritis, the joint is swollen and increased withdrawal responses to radiant heat and spontaneous guarding of the limb were noted. The increased responsiveness to noxious stimuli indicates the presence of secondary hyperalgesia. […]

[3] = tested on: rat arthritis model; experiment: Knee joint circumference and joint temperature in kaolin/carrageenan knee joint inflammation model; format: in vivo; conditions: 4 hours after kaolin/carrageenan; spinal pre-treatment
Method: as §1
Knee joint circumference is measured in centimeters (cm) with a flexible tape measure around the center of the knee joint while the joint is held in extension as done with patients in the clinical setting as an indication of increases in joint volume. The knee joints of anesthetized rats are measured before (baseline) and four hours following injection of the knee joint with kaolin and carrageenan.
Temperature readings were documented numerically with a temperature probe after the rat is reanesthetized with sodium pentobarbital (50 mg/kg, i.p.) just prior to perfusion with aldehydes for histological preservation. Comparative temperature differences were made between the baseline temperature and the temperature four hours after induction of inflammation.

[4] = tested on: TNFα; experiment: TNFα release by ELISA from SW982 synovial cells treated with NMDA and ACPD; format: cell-based, human; conditions: 24 hours, NMDA (5 mM) and ACPD (5 mM), K252a (100 nM)
Method: The cultured cell lines used in these studies were the human neuroblastoma clonal line, SHSY5Y, and the human synovial sarcoma clonal line, SW982, both available through the American Tissue Type Culture Collection (item number CRL 2266 and HTB-93, respectively). Cells were grown in Dulbecco's Modification of Eagles Medium (DMEM) without L-glutamine, with 4.5 grams/Liter glucose, and with 10% bovine fetal serum in a tissue culture incubator at 37° C. in a gaseous mixture of O2/CO2. Cells were routinely split as necessary to maintain proper cell density. Cells were removed from plates by adding TRYPSIN/EDTA in Hank's Balanced Salt solution. After cell counts, approximately 10,000 cells were plated per well in a culture dish. For experiments, the cells were plated into 35 mm Petri dishes or 6- or 24-well plates as needed.
For detection of released Tumor Necrosis Factor alpha (TNFα) and some western blot experiments, cells were exposed to the two glutamate agonists NMDA (5 mM) and ACPD (5 mM), in the presence or absence of the tyrosine kinase inhibitors Genistein […] or K252a (100 nM). […]
The release of the inflammatory mediator and initiator of inflammatory cascades, TNFα was measured by ELISA using a commercially available kit (R&D Quantikine, Catalog Number DTA50) specific for human TNFα. […]

For `O=c1c(-c2ccc(O)cc2)coc2cc(O)cc(O)c12` [Genistein, 5,7-Dihydroxy-3-(4-hydroxyphenyl)-4H-1-benzopyran-4-one; 4′,5,7-trihydroxy-isoflavone], the “effect on NMDA currents” value [1] is given as “decreases NMDA currents”, the “effect on baseline PWL” value ([2]; after 1.5 hours infusion, before kaolin/carrageenan) is given as “did not affect baseline PWL” and the “most effective dose in pre-treatment animals” value ([2]; concentration inside the microdialysis fiber, spinal administration) is given as 1 mM. The “PWL decrease induced by knee joint inflammation” value ([2]; spinal microdialysis pre-treatment 1.5 hours, PWL to radiant heat 4 hours after kaolin/carrageenan) was “significantly (p<0.05 versus 4 hours vehicle group) attenuated the PWL decreases; also recorded: significantly attenuates the inflammation-induced decrease in PWL”, the “development of secondary hyperalgesia” value ([2]; spinal microdialysis pre-treatment, 4 hours after induction of arthritis) was “secondary hyperalgesia did not develop” and the joint circumference [3] was “expected increases”. For the same compound, the joint temperature [3] was “expected increases” and the “NMDA/ACPD-promoted release of TNFα” value [4] was “completely abolished”.
